Source: US20140377223A1, “SUBSTITUTED B[…] AND METHODS OF USE THEREOF FOR THE TREATMENT OF VIRAL DISEASES” (priority 2010, published 2014)

Assays:
[1] = system: HCV replicon genotype 1a; assay: Cell-based HCV replicon assay (TaqMan-based), genotype 1a; conditions: Hepatitis C virus, 72 h, HCV replicon cells, replicon RNA by real time PCR (TaqMan) on day 3
Experimental: (§1) Measurement of inhibition by compounds was performed using the HCV replicon system. Several different replicons encoding different HCV genotypes or mutations were used. In addition, potency measurements were made using different formats of the replicon assay, including different ways of measurements and different plating formats. See Jan M. Vrolijk et al., A replicons-based bioassay for the measurement of interferons in patients with chronic hepatitis C, 110 J. VIROLOGICAL METHODS 201 (2003); Steven S. Carroll et al., Inhibition of Hepatitis C Virus RNA Replication by 2′-Modified Nucleoside Analogs, 278(14) J. BIOLOGICAL CHEMISTRY 11979 (2003). However, the underlying principles are common to all of these determinations, and are outlined below.
(§2) TaqMan®-Based Assay Protocol: Compounds 1, 2 and 3 were assayed for cell-based anti-HCV activity by the following protocol. Replicon cells were seeded at 5000 cells/well in 96-well collagen I-coated Nunc plates in the presence of the test compound. Various concentrations of test compound, typically in 10 serial 2-fold dilutions, were added to the assay mixture, with the starting concentration ranging from 250 μM to 1 μM. The final concentration of DMSO was 0.5%, fetal bovine serum was 5%, in the assay media. Cells were harvested on day 3 by the addition of 1× cell lysis buffer (Ambion cat #8721). The replicon RNA level was measured using real time PCR (TaqMan® assay). The amplicon was located in 5B. The PCR primers were: 5B.2F, ATGGACAGGCGCCCTGA (SEQ. ID NO. 1); 5B.2R, […] (SEQ. ID NO. 2); the probe sequence was FAM-labeled CACGCCATGCGCTGCGG (SEQ. ID NO. 3). GAPDH RNA was used as endogenous control and was amplified in the same reaction as NS5B (multiplex PCR) using primers and VIC-labeled probe recommended by the manufacturer (PE Applied Biosystem). […] Alternatively, to quantitate the absolute amount of replicon RNA, a standard curve was established by including serially diluted T7 transcripts of replicon RNA in the Taqman assay. […]

[2] = system: HCV replicon genotype 1b; assay: Cell-based HCV replicon assay (TaqMan-based), genotype 1b; conditions: Hepatitis C virus, 72 h, HCV replicon cells, replicon RNA by real time PCR (TaqMan) on day 3
Experimental: as §1, §2

[3] = system: HCV replicon genotype 2a; assay: Cell-based HCV replicon assay (TaqMan-based), genotype 2a; conditions: Hepatitis C virus, 72 h, HCV replicon cells, replicon RNA by real time PCR (TaqMan) on day 3
Experimental: as §1, §2

[4] = system: HCV replicon genotype 3a; assay: Cell-based HCV replicon assay (TaqMan-based), genotype 3a; conditions: Hepatitis C virus, 72 h, read-out: Genotype EC50 (nM) 3a
Experimental: as §1, §2

SMILES | EC50 [1] | EC50 [2] | EC50 [3] | EC50 [4]
COC(=O)N[C@H](C(=O)N1CCC[C@H]1c1ncc(-c2ccc3c(c2)-c2ccc(-c4cnc([C@@H]5CCCN5C(=O)[C@@H](NC(=O)OC)C(C)C)[nH]4)cc2-3)[nH]1)C(C)C [Compound 1] | 0.03 nM | 0.007 nM | < 0.019 nM | < 0.19 nM
COC(=O)N[C@H](C(=O)N1C(c2ncc(-c3ccc4c(c3)-c3ccc(-c5cnc([C@@H]6[C@H]7CC[C@H](C7)N6C(=O)[C@@H](NC(=O)OC)C(C)C)[nH]5)cc3-4)[nH]2)[C@H]2CC[C@@H]1C2)C(C)C (stereo partly drawn) [Compound 2] | 0.52 nM | 0.005 nM | < 0.019 nM | < 0.19 nM
COC(=O)N[C@H](C(=O)N1CC(F)(F)C[C@H]1c1ncc(-c2ccc3c(c2)-c2ccc(-c4cnc([C@@H]5CC(F)(F)CN5C(=O)[C@@H](NC(=O)OC)C(C)C)[nH]4)cc2-3)[nH]1)C(C)C [Compound 3] | 0.05 nM | 0.003 nM | < 0.019 nM | 0.022 nM
